Reference: BigSolDB 2.1

## CN1CCC(N(Cc2cccs2)c2ccccc2)CC1
In DMF, 278.15 K
  solubility (mole fraction): 0.00706
In DMF, 283.15 K
  solubility (mole fraction): 0.00795
In DMF, 288.15 K
  solubility (mole fraction): 0.00881
In DMF, 293.15 K
  solubility (mole fraction): 0.00971
In DMF, 298.15 K
  solubility (mole fraction): 0.0108
In DMF, 303.15 K
  solubility (mole fraction): 0.0119
In DMF, 308.15 K
  solubility (mole fraction): 0.0132
In DMF, 313.15 K
  solubility (mole fraction): 0.0143
In DMF, 318.15 K
  solubility (mole fraction): 0.0158
In DMF, 323.15 K
  solubility (mole fraction): 0.0175
In water, 278.15 K
  solubility (mole fraction): 2.63e-05
In water, 283.15 K
  solubility (mole fraction): 2.84e-05
In water, 288.15 K
  solubility (mole fraction): 3.06e-05
In water, 293.15 K
  solubility (mole fraction): 3.36e-05
In water, 298.15 K
  solubility (mole fraction): 3.72e-05
In water, 303.15 K
  solubility (mole fraction): 4.16e-05
In water, 308.15 K
  solubility (mole fraction): 4.62e-05
In water, 313.15 K
  solubility (mole fraction): 5.09e-05
In water, 318.15 K
  solubility (mole fraction): 5.66e-05
In water, 323.15 K
  solubility (mole fraction): 6.3e-05
